According to patent publication US6514989B1, “Aromatic and heteroaromatic substituted 1,2,4-triazolo pyridine derivatives” (Hoffmann-La Roche Inc., priority 2001, dated 2003):

Key:
[1] = molecular target: T1, human adenosine A2a receptor (Homo sapiens, UniProt P29274); assay: Human adenosine A2a receptor radioligand binding assay ([125I]-AB-MECA, CHO cell membranes); conditions: for Selectivity A1/A2a: ratio obtained by dividing KiHA1 by KiHA2A; for Ki: recombinant human A2a receptor expressed in CHO cells, Ki from IC50 by Cheng-Prussoff equation, read-out: hA2a Ki
T1 construct: expressed in transfected cells; host or cells: CHO cells, semliki forest virus expression system; membrane preparation
T1 sequence (P29274 whole entry): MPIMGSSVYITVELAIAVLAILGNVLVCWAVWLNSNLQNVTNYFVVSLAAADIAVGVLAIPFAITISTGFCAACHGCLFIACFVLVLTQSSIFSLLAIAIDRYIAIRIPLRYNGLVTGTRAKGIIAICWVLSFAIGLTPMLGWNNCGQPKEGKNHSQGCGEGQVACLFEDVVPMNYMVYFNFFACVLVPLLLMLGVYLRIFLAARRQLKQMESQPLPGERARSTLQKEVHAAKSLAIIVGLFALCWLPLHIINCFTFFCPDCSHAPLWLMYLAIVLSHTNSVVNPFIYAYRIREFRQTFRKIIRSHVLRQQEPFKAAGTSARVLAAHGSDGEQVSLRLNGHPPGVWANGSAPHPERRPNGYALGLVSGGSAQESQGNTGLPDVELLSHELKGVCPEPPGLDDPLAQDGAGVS
Protocol: Human Adenosine A2a Receptor
The gene encoding human adenosine A2a receptor was recombinantly introduced and expressed in chinese hamster ovary (CHO) cells using the semliki forest virus expression system. Cells were harvested, washed twice by centrifugation, homogenized and again washed by centrifugation. The final washed membrane pellet was suspended in a Tris (50 mM) buffer containing 120 mM NaCl, 5 mM KCl, 2 mM CaCl2 and 10 mM MgCl2 (pH 7.4) (buffer A). The [^125I]-AB-MECA ([N(6)-(4-amino-3-iodobenzyl)-5′-N-methylcarbamoyl-adenosine]; 0.05 nM) binding assay was carried out in 96-well a plates in the presence of 20 μg of membrane protein and 0.1 U adenosine deaminase in a final volume of […] of buffer A. Non-specific binding was defined using xanthine amine congener (XAC; 2 μM). Compounds were tested at 10 concentrations from 10 μM-0.3 nM. All assays were conducted in duplicate and repeated at least two times. Assay plates were incubated for 1 hour at room temperature before filtration through Whatman Unifilter GF/C 96-well filter plates (preincubated with 0.3% polyethyleneimine). Filters were washed 3 times with 0.3 ml of cold (4° C.) Tris (50 mM)—NaC […]
[…] 1 (120 mM) buffer (pH 7.4). Microscint 40 scintillation fluid (50 μl) was added to each well and the wells sealed. After gentle shaking for 20 min, plates were counted on a Packard Topcount scintillation counter. IC50 values were calculated using a non-linear curve fitting program and Ki values calculated using the Cheng-Prussoff equation.
(§1) In accordance with the invention, it has been shown that compounds of formula I have a high affinity toward the A2A receptor. In Table I below specific values of prepared compounds are described, Values of KiHA2A and KiHA1 are shown in Table I for compounds of formula 1. A low Ki value is indicative of a particular compound's high affinity toward a particular receptor and conversely a higher Ki value is indicative of a lower affinity for that compound toward a particular receptor. […] Generally speaking, compounds that have a higher HA1/HA2A ratio are able to give a substantially complete blockade of the HA2A receptor without substantially affecting the A1 receptor.

[2] = molecular target: T2, human adenosine A1 receptor (Homo sapiens, UniProt P30542); assay: Human adenosine A1 receptor radioligand binding assay ([3H]-DPCPX, SPA, CHO cell membranes); conditions: recombinant human A1 receptor expressed in CHO cells; [3H]-DPCPX 0.6 nM; Ki from IC50 by Cheng-Prussoff equation; read-out: hA1 Ki
T2 construct: expressed in transfected cells; host or cells: CHO cells, semliki forest virus expression system; membrane preparation
T2 sequence (P30542 1-326): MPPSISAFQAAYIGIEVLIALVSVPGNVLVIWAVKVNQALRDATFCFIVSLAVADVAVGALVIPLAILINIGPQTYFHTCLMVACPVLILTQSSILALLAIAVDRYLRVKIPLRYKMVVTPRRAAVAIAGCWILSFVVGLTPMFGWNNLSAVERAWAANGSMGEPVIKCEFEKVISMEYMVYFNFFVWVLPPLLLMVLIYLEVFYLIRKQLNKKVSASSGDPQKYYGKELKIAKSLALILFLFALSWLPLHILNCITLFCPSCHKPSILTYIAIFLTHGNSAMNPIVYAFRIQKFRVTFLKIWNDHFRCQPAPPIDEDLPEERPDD
Protocol: Human Adenosine A^1 Receptor
The gene encoding human adenosinie A1 receptor was recombinantly introduced and expressed in chinese hamster ovary (CHO) cells using the semliki forest virus expression system. Cells were harvested, washed twice by centrifugation, homogenized and again washed by centrifugation. The final washed membrane pellet was suspended in a Tris (50 mM) buffer containing 120 mM NaCl, 5 mM KCl, 2 mM CaCl2 and 10 mM MgCl2 (pH 7.4) (buffer A). The [^3H]-DPCPX (([propyl-3H]8-cyclopentyl-1,3-dipropyxanthine); 0.6 nM) binding assay was carried out in 96-well plates in the presence of 2.5 μg of membrane protein, 0.5 mg of Ysi-poly-1-lysine SPA beads and 0.1 U adenosine deaminase in a final volume of 200 μl of buffer A. Non-specific binding was defined using xanthine amine congener (XAC; 2 μM). Compounds were tested at 10 concentrations from 10 μM-0.3 nM. All assays were conducted in duplicate and repeated at least two times. Assay plates were incubated for 1 hour at room temperature before centrifugation and then bound ligand determined using a Packard Topcount scintillation counter. IC50 values were calculated using a non-linear curve fitting program and Ki values calculated using the Cheng-Prussoff equation.
as §1

Row | Selectivity A1/A2a [1] | Ki [1] [nM] | Ki [2] [nM] | SMILES
1 | 24.2 | 71.1 | 1720 | COc1ccc(-c2ccsc2)n2nc(NC(=O)c3ccc(C)s3)nc12 [Example 29, 5-Methyl-thiophene-2-carboxylic acid (8-methoxy-5-thiophen-3-yl-[1,2,4]triazolo[1,5-a]pyridin-2-yl)-amide]
2 | 11.2 | 133 | 1490 | CCOc1cccc(-c2ccc(OC)c3nc(NC(=O)c4ccc(F)cc4)nn23)c1 [Example 34, N-[5-(3-Ethoxy-phenyl)-8-methoxy-[1,2,4]triazolo[1,5-a]pyridin-2-yl]-4-fluoro-benzamide]
3 | 37.6 | 63.6 | 2390 | COc1ccc(-c2cccs2)n2nc(NC(=O)c3ccc(Br)cc3)nc12 [Example 2, 4-Bromo-N-(8-methoxy-5-thiophen-2-yl-[1,2,4]triazolo[1,5-a]pyridin-2-yl)-benzamide]
4 | 23.4 | 159 | 3710 | COc1cccc(C(=O)Nc2nc3c(OC)ccc(-c4ccccc4)n3n2)c1 [Example 11, 3-Methoxy-N-(8-methoxy-5-phenyl-[1,2,4]triazolo[1,5-a]pyridin-2-yl)-benzamide]
5 | 7.3 | 258 | 1870 | COc1ccc(-c2ccccc2)n2nc(NC(=O)c3ccccc3Cl)nc12 [Example 5, 2-Chloro-N-(8-methoxy-5-phenyl-[1,2,4]triazolo[1,5-a]pyridin-2-yl)-benzamide]
6 | 10.6 | 128 | 1360 | COc1ccc(-c2cccc(F)c2)n2nc(NC(=O)c3ccc(C)s3)nc12 [Example 35, 5-Methyl-thiophene-2-carboxylic acid [5-(3-fluoro-phenyl)-8-methoxy-[1,2,4]triazolo[1,5-a]pyridin-2-yl]-amide]
7 | 11.1 | 256 | 2860 | COc1ccc(-c2ccc(Cl)cc2)n2nc(NC(=O)c3ccc(C)s3)nc12 [Example 26, 5-Methyl-thiophene-2-carboxylic acid [5-(4-chloro-phenyl)-8-methoxy-[1,2,4]triazolo[1,5-a]pyridin-2-yl]-amide]
8 | 14.2 | 238 | 3380 | COc1ccc(C(=O)Nc2nc3c(OC)ccc(-c4cccs4)n3n2)cc1 [Example 16, 4-Methoxy-N-(8-methoxy-5-thiophen-2-yl-[1,2,4]triazolo[1,5-a]pyridin-2-yl)-benzamide]
9 | 24.2 | 136 | 3300 | CCc1ccc(C(=O)Nc2nc3c(OC)ccc(-c4cccs4)n3n2)cc1 [Example 18, 4-Ethyl-N-(8-methoxy-5-thiophen-2-yl-[1,2,4]triazolo[1,5-a]pyridin-2-yl)-benzamide]
10 | 24.6 | 201 | 4940 | COc1cccc(C(=O)Nc2nc3c(OC)ccc(-c4cccs4)n3n2)c1 [Example 19, 3-Methoxy-N-(8-methoxy-5-thiophen-2-yl-[1,2,4]triazolo[1,5-a]pyridin-2-yl)-benzamide]
11 | 12.3 | 191 | 2340 | COc1ccc(-c2ccsc2)n2nc(NC(=O)c3ccc(F)cc3)nc12 [Example 33, 4-Fluoro-N-(8-methoxy-5-thiophen-3-yl-[1,2,4]triazolo[1,5-a]pyridin-2-yl)-benzamide]
12 | 12.0 | 208 | 2490 | COc1ccc(-c2cccs2)n2nc(NC(=O)c3ccccc3Br)nc12 [Example 17, 2-Bromo-N-(8-methoxy-5-thiophen-2-yl-[1,2,4]triazolo[1,5-a]pyridin-2-yl)-benzamide]
13 | 20.8 | 227 | 4710 | COc1ccc(C(=O)Nc2nc3c(OC)ccc(-c4ccccc4)n3n2)cc1 [Example 7, 4-Methoxy-N-(8-methoxy-5-phenyl-[1,2,4]triazolo[1,5-a]pyridin-2-yl)-benzamide]
14 | 15.8 | 181 | 2870 | COc1ccc(-c2ccccc2)n2nc(NC(=O)c3cccc(Cl)c3)nc12 [Example 6, 3-Chloro-N-(8-methoxy-5-phenyl-[1,2,4]triazolo[1,5-a]pyridin-2-yl)-benzamide]
15 | 11.6 | 176 | 2030 | COc1ccc(-c2ccccc2)n2nc(NC(=O)c3cccc(F)c3)nc12 [Example 3, 3-Fluoro-N-(8-methoxy-5-phenyl-[1,2,4]triazolo[1,5-a]pyridin-2-yl)-benzamide]
16 | 19.5 | 134 | 2610 | COc1ccc(-c2ccccc2F)n2nc(NC(=O)c3ccc(C)s3)nc12 [Example 24, 5-Methyl-thiophene-2-carboxylic acid [5-(2-fluoro-phenyl)-8-methoxy-[1,2,4]triazolo[1,5-a]pyridin-2-yl]-amide]
17 | 16.5 | 107 | 1760 | COc1cccc(-c2ccc(OC)c3nc(NC(=O)c4ccc(C)s4)nn23)c1 [Example 27, 5-Methyl-thiophene-2-carboxylic acid [8-methoxy-5-(3-methoxy-phenyl)-[1,2,4]triazolo[1,5-a]pyridin-2-yl]-amide]
18 | 17.4 | 142 | 2480 | COc1ccc(-c2cccs2)n2nc(NC(=O)c3cccc(Cl)c3)nc12 [Example 14, 3-Chloro-N-(8-methoxy-5-thiophen-2-yl-[1,2,4]triazolo[1,5-a]pyridin-2-yl)-benzamide]
19 | 22.4 | 102 | 2290 | COc1ccc(-c2ccccc2)n2nc(NC(=O)c3ccc(Br)cc3)nc12 [Example 9, 4-Bromo-N-(8-methoxy-5-phenyl-[1,2,4]triazolo[1,5-a]pyridin-2-yl)-benzamide]
20 | 15.9 | 208 | 3300 | COc1ccc(-c2cccs2)n2nc(NC(=O)c3cccc(CCl)c3)nc12 [Example 20, 3-Chloromethyl-N-(8-methoxy-5-thiophen-2-yl-[1,2,4]triazolo[1,5-a]pyridin-2-yl)-benzamide]
21 | 43.4 | 65.1 | 2830 | COc1ccc(-c2ccccc2)n2nc(NC(=O)c3ccc(C)s3)nc12 [Example 23, 5-Methyl-thiophene-2-carboxylic acid(8-methoxy-5-phenyl-[1,2,4]triazolo[1,5-a]pyridin-2-yl)-amide]
22 | 9.8 | 230 | 2250 | COc1ccc(-c2cccs2)n2nc(NC(=O)c3ccccc3Cl)nc12 [Example 13, 2-Chloro-N-(8-methoxy-5-thiophen-2-yl-[1,2,4]triazolo[1,5-a]pyridin-2-yl)-benzamide]
